Patent US20150087722A1, “TREATMENT FOR BREAST TUMOR CELL METASTASIS” (China Medical University, priority 2012, published 2015)

Columns and labels:
[1] = system: MMP-2, MMP-9, uPA, uPAR, TIMP-1, TIMP-2, PAI-1 in breast tumor cells; assay: western blotting of metastasis-related proteins; type: cell-based, human; settings: 0.5, 1 and 2 μM, 24 h, with dose increasing
Experimental: The steps of western blotting include: washing cells with PBS twice at 4° C.; adding a lysis buffer and rubbing the cells by a rubbr policeman so as to lyse cells; putting the lysed cell solution into a 1.5 ml microcentrifuge tube and shaking for 1 min; centrifuging at 12000 rpm for 10 min and taking the supernatant; measuring concentration of the protein through a Bio-Rad protein assay kit; and storing the remained extracted protein solution at −70° C.; taking 100 μg protein solution and adding a SDS/protein loading buffer having the same volume, where the SDS/protein loading buffer has a concentration two times larger than the protein solution; boiling the mixture of the protein solution and the SDS/protein loading buffer at 100° C. for 10 min; cooling and loading the protein samples in each hole of gel; adjusting the voltage to 100 V and running the protein samples on the gel until the tracking dye in the sample buffer reaches the bottom of the gel; and subsequently transferring the protein from the gel using electrophoresis. […] Then luminescence image equipment was used, where the PVDF was placed onto a black metal plate by a plastic pincer and the face including protein was upwards, a 1:1 mixed Chemiluminesent Substrate was added into the membrane and the exposure time depends on the fluorescence intensity of antibodies. […]

[2] = system: MDA-MB-231 inoculated nude mice; assay: nude mice xenograft tumor model; type: in vivo, nude mice of BALB/c-nu species; settings: about 0.75 mg/Kg injected everyday
Experimental: The in vivo experiment was performed in a nude mice xenograft tumor model. The experimental animals were nude mice of BALB/c-nu species commercially obtained from the National Laboratory Animal Center (NLAC). The nude mice were raise in a germ-free box and the light application time was 7:00-19:00. Filtered air, sterilized water and feed were supplied to and naturally eaten by the nude mice. Female nude mice which matured in 8-10 weeks were used to perform the experiment. The breast tumor cell (2×10^6/100 μl) was injected into one side of each back part of 60 nude mice in a hypodermic injection manner. After about 10 days 1-3 mm tumor was grown on each back of the nude mice, the nude mice were randomly divided into 4 groups. Three groups of nude mice were fed with the active ingredient Antrodia camphorata in different doses. The tumor growth was observed and photographed every day. The tumor volume was measured every three days. The volume was calculated according to the equation provided by Osborne et al in 1987. The experimental animals were divided into the control group (not treated), the solvent group (only physiological saline was injected) and a group injected with the compound II (the dose was about 0.75 mg/Kg). The injection was performed everyday, and the animals were fed in normal conditions and photographed for record, so as to compare the tumor growth condition of experimental animals in each group.

[3] = system: tumor inoculated nude mice; assay: histopathological examination (H&E staining) of tumor inoculated nude mice; type: in vivo; settings: 0.75 mg/Kg everyday, magnification 400×
Experimental: In the histopathological examination of tumor inoculated nude mice, the inoculated nude mice were examined through a histopathological H&E staining method. The tumor and internal organs were embedded in paraffin and sliced into slides having a thickness of […] by a slicer. Then after deparaffinizing, rehydrating and renaturating, the slide was washed with water twice and stained with Hematoxylin solution for 30-50 s. Then the slide was treated with 0.1% acetic acid-water and washed with water twice. At last the slide was stained with Eosin for 100 s and mounted with Histoclad.

[4] = system: MMP-9 and MMP2 in human normal breast cells MCF-10A stimulated by TNF-α/TGF-β; assay: Zymography enzyme activity assay; type: cell-based
Source text: Referring to FIG. 8B, the Zymography enzyme activity assay was used to detect effect of the compound II in different doses on enzyme activities of the MMP-9, MMP2 and uPA in the breast tumor cells MDA-MB-231. Moreover, referring to FIG. 9, the Zymography enzyme activity assay was used to detect effect of the compound I on enzyme activities of the MMP-9 and MMP2 in the human normal breast cells MCF-10A stimulated by TNF-α/TGF-β. In the Zymography enzyme activity assay, the cells (1×10^6) were planted in a 6-well plate. The next day after the cells were adhered to the wall, the cells were cultured in a serum free DMEM culture medium at an atmosphere of 5% CO2 in an incubator at 37° C. for 24 h. The compound II in different doses were added into the DMEM culture medium. In other test groups, the compound I was added, TNF-α/TGF-β were added or the compound I and TNF-α/TGF-β were added into the DMEM culture medium, wherein the concentration of compound I and TNF-α/TGF-β were 2 mM and 10 ng/ml, respectively. The cells were cultured in the culture medium for 2 h and then washed with PBS. The cell culture medium was putted into a microcentrifuge tube and centrifuged for 10 min at 1500 rpm. The supernatant was taken to perform a protein gel electrophoresis (SDS-PAGE), so as to separate the proteins. […]

COC1=C(OC)C(=O)C(C)=C(C)C1=O [compound II]
expression amount of TIMP-1, TIMP-2 and PAI-1 [1]: increased
expression of MMP-2, MMP-9, uPA and uPAR [1]: inhibited
tumor a period after injection [2]: completely disappears
tumor volume versus control group [2]: obviously smaller
tumor weight ([2]; control 0.455±0.328): 0.039±0.028
mitosis state of tumor cells [3]: low mitosis state

COC1=C(OC)C(=O)C(C)=CC1=O [compound I]
enzyme activities of MMP-2 and MMP-9 ([4]; compound alone): decreased
enzyme activities of MMP-2 and MMP-9 ([4]; with TNF-α/TGF-β simultaneously): recovered the increase caused by TNF-α/TGF-β stimulating
